Measurements reported in US7033784B1, “Method of producing an erythroid cell which is undifferentiated yet capable of expressing a heterologous protein” (Syngenta Limited, priority 1999, dated 2006).

How the values were obtained:
[1] = target: T1, Locusta migratoria tyramine receptor (TyrLoc) (Locusta migratoria, UniProt Q25321); experiment: Ca2+ measurements (fura-2) in uninduced MEL-TyrLoc cells; format: cell-based; settings: for antagonism of the Ca2+ increase induced by TA: qualitative, data not shown for part
T1 construct: The coding region of the TyrLoc cDNA was amplified by polymerase chain reaction (PCR) from pVJ12 and pVJ12-IEG; expressed in transfected cells
T1 sequence (Q25321 12-484): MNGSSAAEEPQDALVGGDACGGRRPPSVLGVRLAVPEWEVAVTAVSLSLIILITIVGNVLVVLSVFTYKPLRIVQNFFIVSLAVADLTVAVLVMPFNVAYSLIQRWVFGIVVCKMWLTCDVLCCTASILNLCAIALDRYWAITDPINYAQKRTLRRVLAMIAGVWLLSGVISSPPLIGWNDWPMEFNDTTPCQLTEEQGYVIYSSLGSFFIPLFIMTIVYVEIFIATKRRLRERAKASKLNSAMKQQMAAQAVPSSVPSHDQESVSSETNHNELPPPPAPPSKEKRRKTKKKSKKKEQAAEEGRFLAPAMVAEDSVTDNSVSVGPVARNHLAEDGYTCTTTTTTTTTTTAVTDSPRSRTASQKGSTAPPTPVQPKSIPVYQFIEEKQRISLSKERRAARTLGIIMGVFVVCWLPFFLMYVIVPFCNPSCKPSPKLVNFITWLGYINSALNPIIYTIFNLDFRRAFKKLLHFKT
Protocol: (§1) Elevations in intracellular Ca^2+ in response to stimulation with ligands of the tyramine receptor were measured as follows. Since MEL cells loose the ability to signal on differentiation, and as receptor expression was readily detectable without induction of the MEL cells, uninduced MEL C88L cells of the invention were used.
(§2) Ca^2+ concentration was measured by using the acetoxymethyl (AM) ester of the fluorescent indicator fura-2 (Grynkiewicz G et al. (1985) J. Biol. Chem. 260 3440–3450). Cells were washed with NCF buffer (135 mM NaCl, 5 mM KCl, 6 mM glucose, 0.62 mM MgCl2.6H2O, 10 mM HEPES, pH 7.4 with 4 mM CaCl2) and resuspended at a concentration of 2.10^6 cells/ml in NCF buffer containing 2 μM fura-2-AM (Molecular Probes). After 1 hour incubation in the dark at 27° C., the cell suspension was subjected to centrifugation at 1200 rpm for 5 minutes, resuspended in an equal volume of NCF buffer and incubated for an additional 30 min in the dark. Aliquots were centrifuged as above and resuspended in 3 ml NCF buffer. Measurements of intracellular calcium were made fluorimetrically in a LS-50B Luminescence Spectrophotometer (Perkin-Elmer) in the presence and absence of the appropriate test chemical. Excitation wavelength alternated between 340 and 380 nm. The fluorescence intensity was monitored at an emission wavelength of 510 nm.

[2] = target: T1, Locusta migratoria tyramine receptor (TyrLoc); experiment: cAMP measurements (Scintillation Proximity Assay) in MEL-TyrLoc cells; format: cell-based; settings: for antagonism of the effect of TA on cAMP: 10 μM Fsk + 0.1 μM TA, yohimbine 100 nM to 1 nM, mianserin 10 nM, chlorpromazine 10 nM; for inhibition of forskolin-induced increase of cAMP: 10 μM Fsk + 1 nM to 10 μM TA, FIG. 6
Protocol: (§3) The effect of TA on the cAMP level of the transformed and untransformed cells was investigated. MEL-C88L and MEL-TyrLoc cells were seeded in 6-well plates to a density of 8.10^5 cells/well and allowed to attach. The cell medium was removed and, in different wells, replaced with different NCF buffer solutions as follows: • (i) NCF+1 μM tyramine (TA), • (ii) NCF+10 μM forskolin (Fsk), • (iii) NCF+10 μM Fsk+1 nM to 10 μM TA. where NCF comprised 135 mM NaCl, 5 mM KCl, 6 mM glucose, 0.62 mM MgCl2, 10 mM Hepes pH 7.4 4 mM CaCl2.
For the use of other ligands than TA, the solutions were: • (iv) NCF+10 μM Fsk+1 μM OA, • (v) NCF+10 μM Fsk+0.1 μM TA+100 nM to 1 nM yohimbine, • (vi) NCF+10 μM Fsk+0.1 μM TA+10 nM mianserin; and • (vii) NCF+10 μM Fsk+0.1 μM TA+10 nM chlorpromazine.
(§4) All solutions contained 200 μM […] (IBMX) in order to inhibit cAMP phosphodiesterase. In each study, triplicate wells were incubated with the same solution at 37° C. for exactly 30 min.
(§5) In order to extract the cAMP, 100% ice-cold ethanol was added to each well to a final concentration of 65%. After 5 min incubation at room temperature, the solution was removed from the wells which were then rinsed with 65% ethanol. The eluates from the same well were then pooled together and evaporated using a speedvac. cAMP was then measured using the Scintillation Proximity Assay (Amersham), according to the manufacturers recommended procedure. This experiment was done in triplicate.

[3] = tested on: Untransformed MEL-C88L cells; experiment: cAMP measurements (Scintillation Proximity Assay) in untransformed MEL-C88L cells; format: cell-based, Murine; settings: 200 μM IBMX, FIG. 5
Protocol: as §3, §4, §5

[4] = tested on: Untransformed MEL-C88L cells; experiment: Ca2+ measurements (fura-2) in untransformed MEL-C88L control cells; format: cell-based, Murine; settings: concentrations as high as 100 μM TA
Protocol: as §1, §2

[5] = target: Dopamine Receptor (D-Dop1) (Drosophila melanogaster, UniProt P41596); settings: 10 μM dopamine, Clones C and 2, 1×10^6 cells/well, FIG. 7
Dopamine Receptor (D-Dop1), sequence (P41596 20-511): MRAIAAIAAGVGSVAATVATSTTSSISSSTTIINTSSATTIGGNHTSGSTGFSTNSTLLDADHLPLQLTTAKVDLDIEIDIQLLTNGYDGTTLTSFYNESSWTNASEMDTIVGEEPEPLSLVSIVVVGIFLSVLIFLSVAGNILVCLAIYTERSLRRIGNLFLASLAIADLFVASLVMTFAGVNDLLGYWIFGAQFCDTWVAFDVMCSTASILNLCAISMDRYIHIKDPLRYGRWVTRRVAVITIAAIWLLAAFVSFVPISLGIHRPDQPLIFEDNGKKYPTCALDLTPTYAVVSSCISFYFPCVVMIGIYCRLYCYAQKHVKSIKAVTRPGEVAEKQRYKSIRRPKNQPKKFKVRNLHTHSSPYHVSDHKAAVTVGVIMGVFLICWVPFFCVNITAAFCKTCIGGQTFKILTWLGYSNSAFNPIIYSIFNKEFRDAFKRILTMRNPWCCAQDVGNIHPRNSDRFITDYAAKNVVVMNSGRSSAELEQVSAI
Protocol: (§6) These cells were then transferred to 96-well microtitre plates a final concentrations of 2×10^5 cells/well and 1×10^6 cells/well. […] 2 replicates/clone/concentrations were set up.
(§7) After incubation for 5 hours at 37° C. in an atmosphere of 10% CO2, a chlorophenol red β-D-galactopyranoside (CPRG) solution was added. The solution comprised 11.4 mg CPRG (Boehringer), 500 μl 10× Z buffer, 75 μl 20% SDS, 5 ml H2O and 7 μl ercaptoethanol. 10× Z buffer consists of 0.47M Na2HPO4(2H2O), 0.4M NaH2PO4(2H2O), 0.1M KCI, 10 mM MgSO4(7H2O), adjusted to pH 7.0 with NaOH solution.

serotonin receptor = experiment: β-galactosidase (CRE reporter) assay using serotonin clones of MEL C88L cells
Protocol: as §6, §7

[6] = yohimbine 0.1, 1 and 2.5 μM, FIG. 4

## CN(C)CCCN1c2ccccc2Sc2ccc(Cl)cc21 [Chlorpromazine]
[1]
  antagonism of the Ca2+ increase induced by TA: clearly inhibited
[2]
  antagonism of the effect of TA on cAMP: antagonistic effects

## C=C[C@@]1(C)CC(=O)[C@]2(O)[C@@]3(C)[C@@H](O)CCC(C)(C)[C@@H]3[C@H](O)[C@H](OC(C)=O)[C@@]2(C)O1 [Forskolin, forskolin]
[3]; 10 μM forskolin with or without TA
  increase of cAMP level: more than 6 times

## NCC(O)c1ccc(O)cc1 (centres unmarked) [OA, octopamine]
[1]; OA 0.5 μM versus TA 10 nM (50 times higher concentration), FIG. 3
  Ca2+ increase compared with TA: much lesser extent than TA

## NCCc1ccc(O)cc1 [TA, tyramine]
[1]; MEL-TyrLoc clone, FIG. 2
  TA concentration giving maximal Ca2+ response: 1 µM
[1]; MEL-TyrLoc clone, dose-response 0.01 μM upwards, FIG. 2
  Ca2+ increase after addition of TA: clear transient increase in Ca^2+
[1]; TA versus OA as agonist of TyrLoc in MEL-TyrLoc cells (summary of Ca2+ and cAMP results)
  activating concentrations lower than OA: 3–4 orders of magnitude
[4]
  Ca2+ response in untransformed cells: no response
[2]; 200 μM IBMX
  inhibition of forskolin-induced increase of cAMP: significantly inhibits
[2]; 200 μM IBMX, listed as tyramine
  inhibition of forskolin-induced increase of cAMP: inhibition
[2]; 10 μM Fsk, 200 μM IBMX
  TA concentration giving maximal response (cAMP inhibition): 1 µM
  TA concentration giving minimal response (cAMP inhibition): 1 nM
  decrease in cAMP production with 1 μM TA when compared to 1 μM OA: 4 fold
[3]; 1 μM TA, 30 min
  effect on cAMP level in untransformed cells: did not result in any effect

## COC(=O)[C@@H]1[C@H]2C[C@H]3c4[nH]c5ccccc5c4CCN3C[C@@H]2CC[C@@H]1O [Yohimbine]
[1]
  antagonism of the Ca2+ increase induced by TA: strongest antagonist
[1]; listed as yohimbine
  antagonism of the Ca2+ increase induced by TA: better receptor antagonist than chlorpromazine and mianserin
[1]; [6]
  inhibition of the Ca2+ response to 0.5 μM TA: concentration-dependent inhibition
  inhibition of the Ca2+ response to 5 μM TA: could not inhibit
[1]; yohimbine 0.1, 1 and 2.5 μM, FIG. 4, listed as yohimbin
  inhibition of the Ca2+ response to 0.5 μM TA: inhibition
[2]
  antagonism of the effect of TA on cAMP: inhibited the effect of TA in a dose dependent manner

## NCCc1ccc(O)c(O)c1 [dopamine]
[5]
  absorbance at 570 nm (β-galactosidase, indicating cyclic AMP) with dopamine: increase in absorbance at 570 nm

## C[C@H](CCC(=O)O)C[C@H](C)C[C@H](C)C(=O)/C=C(\O)[C@H](C)C[C@H](C)C/C=C/[C@@H](C)[C@@H](O)[C@@H](C)[C@@H](O)C[C@@H]1CC[C@@](C)([C@H]2CC[C@@](C)([C@@H](C)O)O2)O1 [ionomycin]
[1]; 2 μM ionomycin, check of fura-2 loading
  intracellular Ca2+ concentration after ionophore: large increase

## CCN(CC)CCNC(=O)c1cc(Cl)c(N)cc1OC [metaclopramide]
[1]; at concentrations below 20 μM
  effect on basal Ca2+ concentrations or on the response of the cells to TA: no detectable effect

## CN1CCN2c3ccccc3Cc3ccccc3C2C1 (centres unmarked) [mianserin]
[1]
  antagonism of the Ca2+ increase induced by TA: clearly inhibited
[2]
  antagonism of the effect of TA on cAMP: antagonistic effects

## c1ccc2c(CC3=NCCN3)cccc2c1 [naphazoline]
[1]
  antagonism of the Ca2+ increase induced by TA: weak antagonists

## NCCc1c[nH]c2ccc(O)cc12 [serotonin]
Serotonin receptor; forskolin and serotonin
  forskolin stimulated cAMP in the presence of serotonin: decrease in forskolin stimulated cAMP
Serotonin receptor; serotonin alone
  cyclic AMP signal with serotonin alone: no effect

## c1ccc(CC2=NCCN2)cc1 [tolazoline]
[1]
  antagonism of the Ca2+ increase induced by TA: weak antagonists
